Data published in article PMC11597374, “Synthesis, Characterizations, Anti-Diabetic and Molecular Modeling Approaches of Hybrid Indole-Oxadiazole Linked Thiazolidinone Derivatives” (Pharmaceuticals, 2024).

Experiments:
α-amylase = target: T1, α-amylase (Sus scrofa, UniProt P00690); assay: Alpha-amylase activity assay (starch, DNS, 540 nm); assay type: biochemical; conditions: standard acarbose
T1 sequence (P00690 16-511): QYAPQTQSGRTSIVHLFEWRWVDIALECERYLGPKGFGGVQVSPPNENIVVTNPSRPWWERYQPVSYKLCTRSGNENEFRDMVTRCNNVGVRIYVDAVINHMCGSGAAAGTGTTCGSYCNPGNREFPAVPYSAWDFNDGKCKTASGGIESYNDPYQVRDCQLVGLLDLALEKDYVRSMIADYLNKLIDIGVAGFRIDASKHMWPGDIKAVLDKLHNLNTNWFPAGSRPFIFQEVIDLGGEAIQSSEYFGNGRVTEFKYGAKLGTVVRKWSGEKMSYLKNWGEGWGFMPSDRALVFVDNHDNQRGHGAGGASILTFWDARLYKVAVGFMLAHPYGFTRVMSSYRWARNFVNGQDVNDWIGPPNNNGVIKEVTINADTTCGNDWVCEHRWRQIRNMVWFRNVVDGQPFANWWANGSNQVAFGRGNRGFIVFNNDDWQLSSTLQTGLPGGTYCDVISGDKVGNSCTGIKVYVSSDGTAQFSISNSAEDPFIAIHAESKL
Source text: (§1) In order to obtain biological profiles, all the derivatives were screened against enzymes α-amylase along and α-glucosidase.

α-glucosidase = α-glucosidase (Saccharomyces cerevisiae, UniProt P53341); assay: Alpha-glucosidase inhibition assay; assay type: biochemical; conditions: standard acarbose
α-glucosidase, sequence (P53341 whole entry): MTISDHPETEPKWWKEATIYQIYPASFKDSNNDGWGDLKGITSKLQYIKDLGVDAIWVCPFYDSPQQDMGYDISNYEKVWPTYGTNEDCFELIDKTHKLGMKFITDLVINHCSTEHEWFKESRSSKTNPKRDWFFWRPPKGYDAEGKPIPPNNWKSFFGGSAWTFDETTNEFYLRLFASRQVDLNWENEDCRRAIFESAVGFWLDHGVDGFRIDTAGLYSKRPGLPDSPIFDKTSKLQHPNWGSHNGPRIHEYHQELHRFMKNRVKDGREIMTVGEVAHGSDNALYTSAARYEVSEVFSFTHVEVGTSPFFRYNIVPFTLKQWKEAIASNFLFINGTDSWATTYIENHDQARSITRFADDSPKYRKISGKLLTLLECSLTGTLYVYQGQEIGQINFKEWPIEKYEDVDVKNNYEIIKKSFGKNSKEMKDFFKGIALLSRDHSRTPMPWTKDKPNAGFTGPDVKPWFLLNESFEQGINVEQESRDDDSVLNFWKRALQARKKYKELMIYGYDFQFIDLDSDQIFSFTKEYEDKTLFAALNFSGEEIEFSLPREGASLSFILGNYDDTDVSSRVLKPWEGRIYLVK
Source text: as §1

What does the source list for `O=C1CS/C(=N\c2nnc(CC(c3c[nH]c4ccccc34)C(F)(F)F)o2)N1c1cccc(Oc2ccccc2)c1` (centres unmarked) [Compound 14]?
Alpha Amylase IC50 (α-amylase): non-active; Alpha Glucosidase IC50 (α-glucosidase): non-active
